Data published in patent US20230414502A1, “Method for Preparing an Aqueous Nanocrystalline Suspension Containing Nanocrystals of Pharmaceutically Active Ingredient and a Combination of Stabilizers, Aqueous Nanocrystalline Suspension and Methods of Use Thereof” (Vysoka skola chemicko-technologicka v Praze, priority 2022, published 2023).
pIC50: −log10 of the molar value. “Also recorded” adds a separate entry of the source.

Tests used:
[1] = Microscopy of precipitation/recrystallization in DMEM + 10% FBS or PBS, no cells; type: physicochemical; conditions: for Solubility in DMSO (in words): 500 μg/mL at most 1% DMSO not reachable; for Recrystallization of API added from DMSO into DMEM + 10% FBS (microscopy): 1% DMSO, 100 μg/mL abiraterone acetate and telmisartan, 500 μg/mL others, no cells
[2] = test system: macrophages J774A.1; test: Microscopy of samples incubated with macrophages; type: cell-based, mouse; conditions: for Recrystallization/precipitation of API added from DMSO, tested with J774A.1 (microscopy): 1% DMSO, 100 or 500 μg/mL, DMEM + 10% FBS
Description: For the purpose of the crystallization form DMSO solution study, the J774A.1 cells in the DMEM+10% FBS+1% AA medium were inoculated in a 96 well-plate with a glass-bottom (Cellvis, P96-1.5H-N) with a density of 2×10^4 cells/well and left to adhere overnight. Then, the medium was removed by aspiration, and nanocrystal samples pre-diluted in the fresh medium were added (from 500 μg/mL decreasing in half concentration trend; 90 μL/well). In some cases (abiraterone acetate, telmisartan), it was not possible to reach 500 μg/mL API concentration together with total DMSO content of maximum 1% (1% DMSO is top limit standard in biochemical testing considering the DMSO toxicity and effect on the cell viability and performance) and therefore these substances were tested at 100 μg/mL concentration. Here the great potential of nanocrystals is clearly presented, since the nanocrystal samples were possible to be prepared and tested at 500 μg/mL even in cases where the DMSO solvents would not be accepted for in vitro testing. If possible, all samples were tested at concentration 500 μg/mL (from nanocrystals or from DMSO stock solutions) and incubated in the well-plate for 18 h.

[3] = literature values, cell line not given; read-out: IC50 documented for reference drugs; cited from earlier work

| Recrystallization of API added from DMSO into DMEM + 10% FBS (microscopy) [1] | SMILES | pIC50 [3] | also measured |
| --- | --- | --- | --- |
| did not form macroscopic crystals | CCCc1nc2c(C)cc(-c3nc4ccccc4n3C)cc2n1Cc1ccc(-c2ccccc2C(=O)O)cc1 [Telmisartan] |  | Solubility in DMSO (in words) [1]: low solubility |
|  | COc1cc(/C=C/C(=O)CC(=O)/C=C/c2ccc(O)c(OC)c2)ccc1O [Curcumin] |  | Recrystallization/precipitation of API added from DMSO, tested with J774A.1 (microscopy) [2]: most significant recrystallization/precipitation; also recorded: precipitation/recrystallization from DMSO occurred and was well detectable |
|  | CC(C)(C)c1cc(C(C)(C)C)c(NC(=O)c2c[nH]c3ccccc3c2=O)cc1O [Ivacaftor] |  | Recrystallization/precipitation of API added from DMSO, tested with J774A.1 (microscopy) [2]: most significant recrystallization/precipitation; also recorded: precipitation/recrystallization from DMSO occurred and was well detectable; Effect on J774A.1 cells, API added as DMSO solution ([2]; 8-125 μg/mL): causes cell death (membrane blobbing) |
|  | O=c1[nH]cc(F)c(=O)[nH]1 [5-fluorouracil] | 4.41 |  |
| did not form macroscopic crystals | CCOc1nc2cccc(C(=O)OC(C)OC(=O)OC3CCCCC3)c2n1Cc1ccc(-c2ccccc2-c2nnn[nH]2)cc1 (centres unmarked) [Candesartan cilexetil] |  |  |
|  | COc1cc(C2Oc3cc([C@H]4Oc5cc(O)cc(O)c5C(=O)[C@@H]4O)ccc3OC2CO)ccc1O (some centres unmarked) [Silybinin] | 3.74 |  |
|  | N.N.[Cl][Pt][Cl] [cisplatin] | 3.74 |  |

| SMILES | Recrystallization of API added from DMSO into DMEM + 10% FBS (microscopy) [1] | pIC50 [3] | also measured |
| --- | --- | --- | --- |
| CC(=O)O[C@H]1CC[C@@]2(C)C(=CC[C@@H]3[C@@H]2CC[C@]2(C)C(c4cccnc4)=CC[C@@H]32)C1 [Abiraterone acetate] | formation of both new crystals and solid amorphous phase occurs |  | Solubility in DMSO (in words) [1]: low solubility |
